Tests used:
[1] = Solubility in H2O (deionized water)
Description: This mixture was then shaken, and 1.5 ml of the supernatant removed by a syringe equipped with a 0.22 μm filter unit. After discarding the first 1 mL of the filtrate, the remaining 0.5 mL was collected and saved. 0.1 ml of the saved filtrate was added to a 25 ml flask and diluted with 4% Acetic Acid/Methanol solution to volume. The absorption of the diluted solution at 475 nm was measured by UVN is at 1, 4, and 24 hours after the solutions had been shaken as described above.

[2] = Extinction coefficient by UV/Vis; format: physicochemical; settings: for ε(methanol): in M-1·cm-1 (unit assumed)
Description: Four samples of increasing amounts of a test compound of Formula I (between 3 mg and 11 mg) were put into separate 10 ml flasks and dissolved in methanol. Each of the solutions and one control sample (containing no test compound) were diluted to volume. The absorption at 475 nm was measured by UV/Vis and recorded for each of the five samples. The extinction coefficient for each sample was determined accordingly.
The extinction coefficient for the test compound at 475 nm was determined by averaging the extinction coefficient for the four samples (not including the control). The above steps were repeated (at 733 nm) to determine the extinction coefficient for the test compound at 733 nm. When determining the extinction coefficient of aggregated test compounds LuTex acetate, cholate or deoxycholate, the extinction coefficient at 733 nm is not measured. Instead, the above steps were repeated substituting 4% acetic acid/methanol for methanol.

[3] = Solution pH in deionized water; format: physicochemical; settings: H2O
Description: The test compound was mixed in 5 ml of deionized water to achieve a 2 mg/ml solution. The solution pH was measured using a Beckman pH meter.

[4] = Octanol/water partition coefficient; format: physicochemical
Description: The partition coefficient was measured using an adaptation of the procedure outlined in Drug Stability: Principles and Practices (AAI, Inc. Wilmington, N.C., 2nd Edition, 1995). A 10 ml solution of 10 mg/ml of the test compound of Formula I dissolved in deionized water was placed in a separator funnel, to which 10 ml of 1-octanol was added. The combined mixture was stirred. The mixture was left to separate and the absorption of the compound was measured in the water phase and in the octanol phase by UV/Vis at 413-417 nm (413-417 offers the closest match in absorbance between the octanol phase and the water phase. The octanol water partition coefficient is determined by the formula: […]
The above steps were then repeated using a 10 ml sample of test compound at 1.0 mg/ml.

[5] = Plasma concentration after injection in atherosclerotic rabbits; format: in vivo, NZW rabbits; settings: rabbit, 10 mg/kg injected, 2 mg/ml solution
Description: Plasma pK and biodistribution of the different test compounds of Formula I in plaque are determined and compared with the plasma pK and biodistribution in normal arterial walls. Sixteen normal male NZW rabbits, each weighing 3.5-4.0 kg are obtained from R&R Rabbitry in Stanwood Oreg. Each rabbit is given an intramuscular injection of Ketamine/Rompun [(8.4 mg/kg)/(1.2 mg/kg)] and allowed to relax until the anesthetic takes effect. To induce deep anesthesia, the rabbits then receive a second dose of Ketamine/Rompun [(8.4 mg/kg)/1.2 mg/kg)] via intravenous injection. To expose the abdomen and back legs, each rabbit is shaved with a size 40 blade. Their eyes are coated with lubricant eye ointment (Artificial Tears).
A femoral artery cut down is performed on the right side of the rabbits. Lidocaine (2%) is injected subcutaneously around the femoral artery as a local anesthetic and also applied topically to prevent spasms. A No.4 French Fogarty balloon embolectomy catheter is inserted retrograde 15 cm into the abdominal aorta. The balloon is inflated with 0.5-0.75 ml of hypaque contrast and pulled 3.5 cm distally toward the femoral artery six times. The catheter is then withdrawn. […]
A 3 ml blood sample is taken from each of the rabbits and the cholesterol level for each sample is determined and recorded. […]
The clearance rate of the test compound is also particularly important to measure. Plasma samples from each of the test compounds (see part A of this example) are mixed with 10 mM Triton X-100 and the fluorescence optimum is measured at 745 nm by scanning between 700-800 nm using a 450 nm excitation. A standard curve is run to insure that the fluorescence of the samples lies on the linear portion of the curve. The entire fluorescence emission spectrum is observed by using both a monochromator and CCD array. This permits differentiating between the peak at 745 nm and any possible extraneous fluorescence that might have a different optimum, and tail off into the 745 nm region. Test compound accumulation is expressed as μg drug/g tissue (wet weight) or μg/ml in plasma.

solubility in deionized water [1] [mg/mL]	ε(4% acetate/methanol) ([2]; 4% acetate/methanol, wavelength not given) [M⁻¹ cm⁻¹]	ε(methanol) ([2]; wavelength not printed (aggregated compound, 733 nm not measured))	ε(methanol) ([2]; at 475 nm)	ε(methanol) ([2]; at 733 nm)	pH [3]	K (octanol/water) ([4]; 0.05 mg/ml)	pH(octanol/water) ([4]; 0.05 mg/ml)	Plasma Concentration ([5]; 1 Hour post injection) [µg/mL]	Plasma Concentration ([5]; 5 Hours post injection) [µg/mL]	Plasma Concentration ([5]; 24 Hours post injection) [µg/mL]	K (octanol/water) ([4]; 0.5 mg/ml)	pH(octanol/water) ([4]; 0.5 mg/ml)	Substance
50 to 80													lutetium complex of 4,5-diethyl-10,23-dimethyl-9,24-bis(3-hydroxypropyl)-16,17-bis[2-[2-(2-methoxyethoxy)ethoxy]ethoxy]pentaazapentacyclo-[20.2.1.1^3,6.1^8,11.0^14,19]heptacosa-1,3,5,7,9,11(27),12,14,16,18,20,22(25),23-tridecaene bis gluconate [LuTex bis gluconate]
	135000	136000											The lutetium (III) complex of: 4,5-diethyl-10,23-dimethyl-9,24-bis(3-hydroxypropyl)-16,17-bis[2-[2-(2-methoxyethoxy)ethoxy]ethoxy]pentaazapentacyclo[20.2.1.1^3,6.1^8,11.0^14,19]-heptacosa-1,3,5,7,9,11 (27),12,14,16,18,20,22(25),23-tridecaene bis deoxycholate [LuTex bis deoxycholate]
			122800	40600	6.1	0.34	6.6						The lutetium (III) complex of: 4,5-diethyl-10,23-dimethyl-9,24-bis(3-hydroxypropyl)-16,17-bis[2-[2-(2-methoxyethoxy)ethoxy]ethoxy]pentaazapentacyclo[20.2.1.1^3,6.1^8,11.0^14,19]-heptacosa-1,3,5,7,9,11(27),12,14,16,18,20,22(25), 23-tridecaene bis benzoate [LuTex bis benzoate]
2 to 2.5			126400	41700	5.5	0.02	5.6	3.9	0.5	0.3	0.02	5.1	The lutetium (III) complex of: 4,5-diethyl-10,23-dimethyl-9,24-bis(3-hydroxypropyl)-16,17-bis[2-[2-(2-methoxyethoxy)ethoxy]ethoxy]pentaazapentacyclo[20.2.1.1^3,6.1^8,11.0^14,19]-heptacosa-1,3,5,7,9,11(27),12,14,16,18,20,22(25), 23-tridecaene bis formate [LuTex bis formate]
